Reference: patent publication US20110098352A1, “N,N-DISUBSTITUTED AMINOALKYLBIPHENYL ANTAGONISTS OF PROSTAGLANDIN D2 RECEPTORS” (AMIRA PHARMACEUTICALS, INC., priority 2008, published 2011)
Like-named read-outs stand apart in the source and are kept apart here.

How the values were obtained:
[1] = target: T1, recombinant human CRTH2 receptor (Homo sapiens, UniProt Q9Y5Y4); test: GTPγS binding assay; assay type: biochemical; conditions: +HSA; CHO cell membranes, 80 nM PGD2; read-out: hDP2 GTPγS μM (+HSA)
T1 construct: expressed in transfected cells
T1 sequence (Q9Y5Y4 1-395): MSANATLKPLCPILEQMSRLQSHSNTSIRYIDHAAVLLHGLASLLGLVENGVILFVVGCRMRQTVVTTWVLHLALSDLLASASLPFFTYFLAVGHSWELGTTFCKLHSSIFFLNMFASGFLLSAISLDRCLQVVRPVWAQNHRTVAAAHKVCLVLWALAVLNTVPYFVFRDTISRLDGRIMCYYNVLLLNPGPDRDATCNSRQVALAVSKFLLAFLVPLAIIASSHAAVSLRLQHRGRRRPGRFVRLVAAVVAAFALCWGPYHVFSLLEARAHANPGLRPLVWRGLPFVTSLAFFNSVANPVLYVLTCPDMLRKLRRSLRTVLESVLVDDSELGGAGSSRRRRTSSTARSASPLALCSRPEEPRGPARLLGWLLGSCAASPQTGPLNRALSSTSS
Description: The ability of a compound to inhibit binding of GTP to DP2 is assessed via a membrane GTPγS assay. CHO cells stably expressing the recombinant human CRTH2 receptor are resuspended in 10 mM Hepes, 7.4 containing 1 mM DTT, lysed and centrifuged at 75,000×g to pellet the membranes. The membranes are resuspended in 10 mM Hepes, 7.4 containing 1 mM DTT and 10% glycerol. […] The reactions are terminated by rapid filtration through Whatman GF/B glass fibre filter plates. The filter plates are washed 3 times with 1 ml cold Assay Buffer and dried. Scintillant is then added to the plates and the radioactivity retained on the filters is determined on a Packard TopCount (Perkin Elmer). Specific binding is determined as total radioactive binding minus non-specific binding in the absence of the ligand (80 nM PGD2). IC50s were determined using Graphpad prism analysis of drug titration curves.

human DP1 receptor = target: T2, human DP1 receptor (Homo sapiens, UniProt Q13258); test: DP1 radioligand membrane binding assay using [3H]BWA868C; conditions: [3H]BWA868C binding, human platelet membranes; read-out: hDP1
T2 construct: tissue Biological Specialty Corporation; host or cells: human platelets, membranes
T2 sequence (Q13258 1-359): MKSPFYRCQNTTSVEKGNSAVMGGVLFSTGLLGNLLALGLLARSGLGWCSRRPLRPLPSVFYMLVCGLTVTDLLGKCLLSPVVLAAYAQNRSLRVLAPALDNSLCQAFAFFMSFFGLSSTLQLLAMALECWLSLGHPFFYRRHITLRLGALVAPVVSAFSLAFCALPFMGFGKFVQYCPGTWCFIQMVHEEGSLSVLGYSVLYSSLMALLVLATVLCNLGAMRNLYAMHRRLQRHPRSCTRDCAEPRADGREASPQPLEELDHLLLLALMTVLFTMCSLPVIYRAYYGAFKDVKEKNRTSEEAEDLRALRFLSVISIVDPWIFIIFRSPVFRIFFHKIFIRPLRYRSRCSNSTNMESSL
Description: The ability of a compound to bind to the human DP1 receptor was evaluated via a radioligand membrane binding assay using the DP1 selective synthetic ligand [^3H]BWA868C. Packed human platelets (Biological Specialty Corporation), were resuspended in 6 volumes of Hepes/HBSS buffer (10 mM Hepes, 1 mM DTT in Hanks Balanced Salt Solution (HBSS)), lysed and centrifuged at 75,000×g to pellet the membranes. Membranes were resuspended in Hepes/HBSS buffer to approximately 12 mg protein/ml. Membranes (20 μg protein/well) are incubated in 96-well plates with 2 nM [^3H]BWA868C and test compound in Assay Buffer (50 mM Hepes, 10 mM MnCl2, 1 mM EDTA, plus or minus 0.2% human serum albumin, pH 7.4) for 60 minutes at room temperature. The reactions are terminated by rapid filtration through Whatman GF/C glass fibre filter plates. The filter plates were pre-soaked in […] polethylenimine for 30 minutes at room temperature then washed in Wash Buffer (50 mM Hepes, 0.5 M NaCl pH 7.4) prior to harvesting. After harvesting, the filter plates are washed 3 times with 1 ml cold Wash Buffer then dried. Scintillant is then added to the plates and the radioactivity retained on the filters is determined on a Packard TopCount (Perkin Elmer). Specific binding is determined as total radioactive binding minus non-specific binding in the presence of 10 μM BWA868C. IC50s were determined using GraphPad prism analysis of drug titration curves.

human DP2 receptor = target: T3, human DP2 receptor (Homo sapiens, UniProt Q9Y5Y4); test: DP2/CRTH2 radioligand binding assay using [3H]PGD2
T3 construct: expressed in transfected cells
T3 sequence (Q9Y5Y4 1-395): T1 sequence (Q9Y5Y4 1-395)
Description: The ability of a compound to bind to the human DP2 receptor is assessed via a radioligand binding assay using [^3H]PGD2. HEK293 cells stably expressing recombinant human DP2 are resuspended in 10 mM Hepes, 7.4 containing 1 mM DTT, lysed and centrifuged at 75,000×g to pellet the membranes. The membranes are resuspended in 10 mM Hepes, 7.4 containing 1 mM DTT and 10% glycerol to approximately 5 mg protein/ml. Membranes (2-10 μg protein/well) are incubated in 96-well plates with 1 nM [^3H]PGD2 and test compound in Assay Buffer (50 mM Hepes, 10 mM MnCl2, 1 mM EDTA, plus or minus 0.2% human serum albumin, pH 7.4) for 60 minutes at room temperature. The reactions are terminated by rapid filtration through Whatman GF/C glass fibre filter plates. The filter plates were pre-soaked in 0.33% polythylenimine for 30 minutes at room temperature then washed in Wash Buffer (50 mM Hepes, 0.5 M NaCl pH 7.4) prior to harvesting. After harvesting, the filter plates are washed 3 times with 1 ml cold Wash Buffer then dried. Scintillant is then added to the plates and the radioactivity retained on the filters is determined on a Packard TopCount (Perkin Elmer). Specific binding is determined as total radioactive binding minus non-specific binding in the presence of 10 μM PGD2. IC50s were determined using GraphPad prism analysis of drug titration curves.

[2] = [3H]PGD2 binding, membranes of HEK293 cells expressing recombinant human DP2, read-out: hDP2

| Structure (SMILES) | IC50 [1] [µM] | IC50 (human DP1 receptor) [µM] | IC50 (human DP2 receptor; [2]) [µM] | IC50 (human DP2 receptor) [µM] |
| --- | --- | --- | --- | --- |
| CCN(Cc1cc(C(F)(F)F)ccc1-c1cc(CC(=O)O)ccc1OC)C(=O)COC [Compound 1-46, (2′-{[Ethyl-(2-methoxy-acetyl)-amino]-methyl}-6-methoxy-4′-trifluoromethyl-biphenyl-3-yl)-acetic acid] | < 0.3 | > 1 | < 0.3 |  |
| O=C(O)Cc1ccc(F)c(-c2ccc(C(F)(F)F)cc2CN(CC(F)(F)F)C(=O)OCc2ccccc2)c1 [Compound 1-49, (2′-{[Benzyloxycarbonyl-(2,2,2-trifluoro-ethyl)-amino]-methyl)-6-fluoro-4′-trifluoromethyl-biphenyl-3-yl)-acetic acid] |  | > 1 | > 1 |  |
| CCN(Cc1cc(F)ccc1-c1cc(CC(=O)O)ccc1OC)C(=O)NCc1ccc(Cl)cc1 [Compound 1-185, {2′-[3-(4-Chloro-benzyl)-1-ethyl-ureidomethyl]-4′-fluoro-6-methoxy-biphenyl-3-yl}-acetic acid] |  | > 1 | < 0.3 |  |
| CCN(Cc1cc(C(F)(F)F)ccc1-c1cc(CC(=O)O)ccc1O)C(=O)NCc1ccccc1 [Compound 1-220, [2′-(3-Benzyl-1-ethyl-ureidomethyl)-6-hydroxy-4′-trifluoromethyl-biphenyl-3-yl]-acetic acid] | < 0.3 |  | < 0.3 |  |
| CCNC(=O)N(CC)Cc1cc(C(F)(F)F)ccc1-c1cc(CC(=O)O)ccc1OC [Compound 1-181, [2′-(1,3-Diethyl-ureidomethyl)-6-methoxy-4′-trifluoromethyl-biphenyl-3-yl]-acetic acid] |  | > 1 | < 0.3 |  |
| CCN(Cc1cc(C(F)(F)F)ccc1-c1cccc(CC(=O)O)c1)C(=O)OCc1ccccc1 [Compound 1-143, {2′-[(Benzyloxycarbonyl-ethyl-amino)-methyl]-4′-trifluoromethyl-biphenyl-3-yl}-acetic acid] |  | 0.3 to 1 | < 0.3 |  |
| CCN(Cc1cc(C(F)(F)F)ccc1-c1cc(CC(=O)O)ccc1OC)C(=O)C1CC1 [Compound 1-33, {2′-[(Cyclopropanecarbonyl-ethyl-amino)-methyl]-6-methoxy-4′-trifluoromethyl-biphenyl-3-yl}-acetic acid] |  | > 1 |  | < 0.3 |
| CCN(Cc1cc(C(F)(F)F)ccc1-c1cc(CC(=O)O)ccc1OC)C(=O)C(C)C [Compound 1-246, {2′-[(Ethyl-isobutyryl-amino)-methyl]-6-methoxy-4′-trifluoromethyl-biphenyl-3-yl}-acetic acid] | < 0.3 |  | < 0.3 |  |
| COc1ccc(CC(=O)O)cc1-c1ccc(C(=O)O)cc1CN(CC(F)(F)F)C(C)=O [Compound 1-37, 2-{[Acetyl-(2,2,2-trifluoro-ethyl)-amino]-methyl}-5′-carboxymethyl-2′-methoxy-biphenyl-4-carboxylic acid] |  | > 1 | > 1 |  |
| CCN(Cc1cc(F)ccc1-c1cc(CC(=O)O)ccc1OC)C(C)=O [Compound 1-184, {2′-[(Acetyl-ethyl-amino)-methyl]-4′-fluoro-6-methoxy-biphenyl-3-yl}-acetic acid] |  | > 1 | < 0.3 |  |

Now from value to compound, other results behind:

| IC50 [1] [µM] | IC50 (human DP1 receptor) [µM] | IC50 (human DP2 receptor; [2]) [µM] | Structure (SMILES) | IC50 (human DP2 receptor) [µM] |
| --- | --- | --- | --- | --- |
| < 0.3 | > 1 | < 0.3 | COc1ccc(CC(=O)O)cc1-c1ccc(C(F)(F)F)cc1CN(C)C(=O)OCc1ccccc1 [Compound 1-27, {2′-[(Benzyloxycarbonyl-methyl-amino)-methyl]-6-methoxy-4′-trifluoromethyl-biphenyl-3-yl)-acetic acid] |  |
| < 0.3 | > 1 | < 0.3 | CCN(Cc1cc(C(F)(F)F)ccc1-c1cc(CC(=O)O)ccc1OC)C(=O)OCc1cc(F)cc(F)c1 [Compound 1-40, (2′-{[(3,5-Difluoro-benzyloxycarbonyl)-ethyl-amino]-methyl}-6-methoxy-4′-trifluoromethyl-biphenyl-3-yl)-acetic acid] |  |
| < 0.3 | > 1 | < 0.3 | CCN(Cc1ccccc1)C(=O)N(CC)Cc1cc(C(F)(F)F)ccc1-c1cc(CC(=O)O)ccc1OC [Compound 1-94, [2′-(3-Benzyl-1,3-diethyl-ureidomethyl)-6-methoxy-4′-trifluoromethyl-biphenyl-3-yl]-acetic acid] |  |
| < 0.3 | > 1 | < 0.3 | CCN(Cc1cc(C(F)(F)F)ccc1-c1cc(CC(=O)O)ccc1OC)C(=O)OC(C)c1ccc(Cl)cc1 (stereo not shown) [Compound 1-44, [2′-({[1-(4-Chloro-phenyl)-ethoxycarbonyl]-ethyl-amino)-methyl)-6-methoxy4′-trifluoromethyl-biphenyl-3-yl]-acetic acid] |  |
|  | > 1 | < 0.3 | CCN(Cc1cc(C(F)(F)F)ccc1-c1cc(CC(=O)O)ccc1OC)C(=O)N[C@H](C)c1ccc(Cl)cc1 [Compound 1-179, (2′-{3-[(R)-1-(4-Chloro-phenyl)-ethyl]-1-ethyl-ureidomethyl}-6-methoxy-4′-trifluoromethyl-biphenyl-3-yl)-acetic acid] |  |
|  | > 1 | < 0.3 | CCN(Cc1cc(C(F)(F)F)ccc1-c1cc(CC(=O)O)ccc1OC)C(=O)NCc1ccc(Cl)c(Cl)c1 [Compound 1-152, {2′-[3-(3,4-Dichloro-benzyl)-1-ethyl-ureidomethyl]-6-methoxy-4′-trifluoromethyl-biphenyl-3-yl}-acetic acid] |  |
|  | > 1 | < 0.3 | CCN(Cc1cc(F)ccc1-c1cc(CC(=O)O)ccc1OC)C(=O)NCc1ccccc1 [Compound 1-187, [2′-(3-Benzyl-1-ethyl-ureidomethyl)-4′-fluoro-6-methoxy-biphenyl-3-yl]-acetic acid] |  |
|  | > 1 | < 0.3 | CCN(Cc1cc(C(F)(F)F)ccc1-c1cc(CC(=O)O)ccc1OC)C(=O)NCc1cccc(Cl)c1 [Compound 1-177, {2′-[3-(3-Chloro-benzyl)-1-ethyl-ureidomethyl}-6-methoxy-4′-trifluoromethyl-biphenyl-3-yl}-acetic acid] |  |
|  | > 1 | < 0.3 | CCN(Cc1cc(C(F)(F)F)ccc1-c1cc(CC(=O)O)ccc1OC)C(=O)NCc1cc(Cl)cc(Cl)c1 [Compound 1-165, {2′-[3-(3,5-Dichloro-benzyl)-1-ethyl-ureidomethyl]-6-methoxy-4′-trifluoromethyl-biphenyl-3-yl}-acetic acid] |  |
